Data from patent US12036201B2, “Combination of a ubiquitin-conjugating enzyme complex inhibitor and antihypertensive and/or hypoglycemic drugs in diabetic kidney disease” (UNIVERSITÀ DEGLI STUDI DI BARI ALDO MORO, priority 2018, dated 2024).
“Also recorded” adds a separate entry of the source.

Legend:
[1] = Clinical data of DBA/2J mice (controls and STZ diabetic): body weight, kidney weight, blood glucose, urinary volume; format: in vivo, mice (DBA/2J); design: Blood glucose at sacrifice: unit: mg/dl; conditions: for Kidney Weight: in g (unit assumed)
Method: The animal model employed is the murine model DBA/2J. 8-weeks-old mice received daily intraperitoneal injections for five consecutive days of either sodium citrate (females, control group) or streptozotocin (STZ, 45 mg/kg, pH4.5, dissolved in sodium citrate) for the study group (males). Only those animals showing a blood glucose level above 250 mg/dl were included in this study. Five weeks following the last STZ injection, animals were treated with NSC697923 dissolved in PBS (3 mg/kg, 3 times a week for 6 weeks) and/or […] (2 mg/kg, 3 times a week for 6 weeks) dissolved in DMSO 2% either alone or in combination [NSC697923 (3 mg/kg)+[…] (2 mg/kg) 3 times a week for 6 weeks]. Serum and 24 h urine samples were collected at the end of the treatment. Kidney samples were collected at sacrifice and immediately fixed in formalin and embedded in paraffin.

diabetic mice (STZ) [2] = experiment: Urinary albumin analysis (Mouse Albumin ELISA Kit) in 24 h urine; format: in vivo, mice (DBA/2J); conditions: for ug urine albumin 24 h: 24 h urine
Method: (§1) The animal model employed is the murine model DBA/2J. 8-weeks-old mice received daily intraperitoneal injections for five consecutive days of either sodium citrate (females, control group) or streptozotocin (STZ, 45 mg/kg, pH4.5, dissolved in sodium citrate) for the study group (males). Only those animals showing a blood glucose level above 250 mg/dl were included in this study. Five weeks following the last STZ injection, animals were treated with NSC697923 dissolved in PBS (3 mg/kg, 3 times a week for 6 weeks) and/or RAMIPRIL (2 mg/kg, 3 times a week for 6 weeks) dissolved in DMSO 2% either alone or in combination [NSC697923 (3 mg/kg)+RAMIPRIL (2 mg/kg) 3 times a week for 6 weeks]. Serum and 24 h urine samples were collected at the end of the treatment. Kidney samples were collected at sacrifice and immediately fixed in formalin and embedded in paraffin.
Urinary albumin concentration was measured in the urine of these animals using the commercially available Mouse Albumin ELISA Kit (Abcam). The urinary albumin values were normalized to the total urinary protein content compared to the total volume of urines produced during the 24 h before sacrifice.

[3] = tested on: Lysine 63 ubiquitinated proteins (Lys63-Ub); experiment: Immunohistochemistry of lysine 63 ubiquitinated proteins on renal tissue; format: in vivo, mice (DBA/2J); conditions: diabetic mice (STZ)
Method: Tissue samples were obtained from kidney of DBA/2J mice. Following sacrifice, tissues were fixed in 4% formaldehyde. In order to evaluate the accumulation of proteins undergoing Lysisine63-linked ubiquitylation through immunohistochemistry, dewaxed and unmasked sections were incubated 10 min in H2O2 and 5 min in Triton 0.25% at ambient temperature. Sections were then blocked 10 min with Protein block (Dako, Glostrup, Denmark) and then incubated 1 h with the specific antibody against and lysine63-linked ubiquitylation. […] Sections were stained with hematoxylin and slides were mounted with glycerol. The negative control sample lacks the primary antibody incubation step. The signal is then quantified using the Positive Pixel Count v9_v10.0.0.1805 algorithm (Aperio Technologies) that measures the number of […].
The animal model employed is the murine model DBA/2J. […]
(§2) Lysine 63 ubiquitinated proteins accumulation has been evaluated by immunohistochemistry on renal tissues from the mice model of diabetic nephropathy (DBA/2J mice+streptozotocin-STZ); the degree of fibrosis in these samples has been evaluated by Sirius Red Fast Green staining.

diabetic mice (STZ) [4] = experiment: Sirius Red/Fast Green staining of tubular-interstitial fibrosis in kidney; format: in vivo, mice (DBA/2J)
Method: Tissue samples were obtained from kidneys of DBA/2J mice following sacrifice. Tissue was fixed in 4% formaldehyde. Following dewaxing and hydration, sections were incubated with Bouin's solution overnight at ambient temperature. Sections were then rinsed using running tap water to remove all the fixative residues and incubated 1 h at ambient temperature with the Sirius Red/Fast Green dye combination 1:1.
as §1, with “Serum and 24 h urine samples were collected at the end of the treatment. Kidney samples were collected at sacrifice and immediately fixed in formalin and embedded in paraffin.” left out
as §2

[5] = tested on: α-sma expression in HK2 cells; experiment: Western blotting of α-sma in HK2 cells under high glucose; format: cell-based, human; conditions: Example 3, FIG. 3, high glucose 30 mM, NSC697923 1 μM, Ramipril 10 μM
Method: (§3) HK2 cells, a line of Renal Proximal Tubule Epithelial Cells (PTEC) obtained from a human control kidney, were purchased from the American Type Culture Collection (ATCC, Rockville, MD). Cells were cultured in DMEM growth medium low glucose (5.5 mM) with the addition of 10% fetal bovine serum (FBS), 1% Penicillin and Streptomycin and 1% L-Glutamine (Sigma-Aldrich, Munich, Germany). Prior to each passage, cells reaching confluence were rinsed with phosphate-buffered saline (PBS), trypsinized with Trypsin 0.05% and Ethylenediaminetetraacetic acid (EDTA) 0.02% in PBS and seeded in complete growth medium with or without the addition of D-Glucose 24.5 mM (final concentration in hyperglycemia HG=30 mM) or L-Glucose 24.5 mM as osmolarity control, for each predetermined time point. Cells were then incubated at 37° C. in 5% CO2.
Cells were plated in six-well plates and incubated to reach confluence. Cells were then exposed to either D- or L-Glucose at a concentration of 30 mM for the indicated time point. […]
By western blotting on cultured immortalized renal tubular cells (HK2) we evaluated the protein expression levels of α-sma, a marker of epithelial-to-mesenchymal transition.

[6] = tested on: α-sma expression in HK2 cells; experiment: Immunofluorescence/confocal microscopy of α-sma in HK2 cells under high glucose; format: cell-based, human; conditions: NSC697923 1 μM
Method: as §3
(§4) The cellular distribution of the proteins showing lysine63-linked ubiquitylation and the expression of the mesenchymal marker α-sma was evaluated in HK2 cells through indirect immunofluorescence and confocal microscopy analysis following incubation with specific antibodies. For each condition, 150.000 cells were plated on sterile glass slides and then incubated with D- or L-Glucose 30 mM for the indicated time point. In some predetermined conditions, the specific inhibitor of Lysine63-linked ubiquitylation, NSC697923, was pre-incubated at a 1 μM final concentration, 1 h prior to the addition of glucose and/or the ACE-inhibitor Ramipril at a final concentration of 10 μM and/or the SGLT2 inhibitor Empaglifozin at a 500 nM final concentration. Following stimulation, HK2 were fixed 15 min in paraformaldehyde 4%, treated 5 min with Triton-X 100 0.1% in PBS, and incubated 1 h in blocking buffer (goat serum 4%+BSA 2%). Cells were then incubated 1 h with the specific antibodies against α-sma and lysine63 ubiquitin diluted in blocking buffer. The antigen-antibody complex was then identified using a secondary fluorescent antibody (specifically Alexa Fluor 555 goat anti-rabbit and Alexa Fluor 488 goat anti-mouse). Prior to the incubation with the secondary antibody, cells were rinsed three times in PBS. Cells nuclei were then stained using TO-PRO-3 diluted in PBS and slides were mounted. The negative control was obtained incubating cells in blocking without the addition of the primary antibody. The fluorescence signal was then acquired using the Leica TCS SP2 confocal microscope and images were saved at a 63× zoom using the microscope software. Signal was finally quantified measuring the area % of fluorescent signal compared to the background.

[7] = tested on: Lysine 63 ubiquitinated proteins in HK2 cells; experiment: Immunofluorescence/confocal microscopy of lysine 63 ubiquitinated proteins in HK2 cells under high glucose; format: cell-based, human; conditions: high glucose 30 mM, NSC697923 1 μM
Method: as §3, §4

[8] = tested on: immortalized human renal tubular cells HK2; conditions: in vitro cellular model of HK2 cells; Pontrelli et al. FASEB J 2017; cited from earlier work
[9] = Table 1, diabetic (STZ) DBA/2J mice, NSC697923 3 mg/kg 3 times a week for 6 weeks
[10] = Table 1, non-diabetic DBA/2J mice, NSC697923 3 mg/kg 3 times a week for 6 weeks
[11] = Table 2, diabetic (STZ) DBA/2J mice, NSC697923 3 mg/kg and/or Ramipril 2 mg/kg 3 times a week for 6 weeks
[12] = Example 6, FIG. 6, compared to untreated diabetic mice or mice treated with ACE inhibitors alone
[13] = Example 8, FIG. 8a, high glucose 30 mM, Empaglifozin 500 nM
[14] = Example 4, FIG. 4b, Ramipril 10 μM
[15] = Example 8, FIG. 8b, Empaglifozin 500 nM
[16] = Table 2, non-diabetic DBA/2J mice, NSC697923 3 mg/kg and/or Ramipril 2 mg/kg 3 times a week for 6 weeks

Structure (SMILES): Cc1ccc(S(=O)(=O)c2ccc([N+](=O)[O-])o2)cc1 [NSC697923, 2-(4-methylphenyl)sulfonyl-5-nitrofuran]
- Blood glucose at sacrifice [1, 9]: 540.5 ± 33.05
- Urinary Volume (mL/24 h) [1, 9]: 25.83 ± 12.58 mL/24 h
- Kidney Weight [1, 9]: 0.33 ± 0.079
- Blood glucose at sacrifice [1, 10]: 118.8 ± 10.44
- Urinary Volume (mL/24 h) [1, 10]: 0.33 ± 0.17 mL/24 h
- Kidney Weight [1, 10]: 0.24 ± 0.018
- Blood glucose at sacrifice [1, 11]: 594.28 ± 7.95
- Urinary Volume (mL/24 h) [1, 11]: 24.85 ± 7.78 mL/24 h
- Kidney Weight [1, 11]: 0.38 ± 0.05
- effect on urinary albuminuria (diabetic mice (STZ) [2]; Example 2, first group of animals, treated diabetic mice (STZ+NSC697923) compared to untreated diabetic mice (STZ)): has no effect; also recorded: not able to reduce
- ug urine albumin 24 h (diabetic mice (STZ) [2]; [9]): 724.25 ± 690.89 µg
- ug urine albumin 24 h (diabetic mice (STZ) [2]; [11]): 439.29 ± 211.2 µg
- accumulation of lysine 63 ubiquitinated proteins in kidney ([3]; Example 1, FIG. 1, NSC697923 3 mg/kg 3 times a week for 6 weeks, vs untreated STZ): significantly reduces
- accumulation of lysine 63 ubiquitinated proteins in kidney [3, 12]: significant reduction
- degree of tubular-interstitial fibrosis (Sirius Red Fast Green) (diabetic mice (STZ) [4]; Example 1, FIGS. 1 and 2, NSC697923 3 mg/kg 3 times a week for 6 weeks, vs untreated STZ, 3 mg/kg): significantly reduces; also recorded: capable of reducing
- degree of fibrosis (Sirius Red Fast Green) (diabetic mice (STZ) [4]; [12]): significant reduction
- α-sma expression (western blotting, normalized to actin) [5]: reduced
- α-sma expression (confocal microscopy) [6, 13]: reduces both processes
- α-sma expression (confocal microscopy) ([6]; Examples 4 and 5, FIGS. 4a and 5, high glucose 30 mM, Ramipril 10 μM): reduces both processes; also recorded: able to inhibit
- accumulation of lysine 63 ubiquitinated proteins (confocal microscopy) [7, 14]: reduces both processes
- accumulation of lysine 63 ubiquitinated proteins (confocal microscopy) [7, 15]: reduces both processes
- epithelial to mesenchymal transition [8]: blocks

Structure (SMILES): CCOC(=O)[C@H](CCc1ccccc1)N[C@@H](C)C(=O)N1[C@H](C(=O)O)C[C@@H]2CCC[C@@H]21 [RAMIPRIL, Ramipril]
- Blood glucose at sacrifice [1, 11]: 555.71 ± 71.48
- Urinary Volume (mL/24 h) [1, 11]: 29.64 ± 9.51 mL/24 h
- Kidney Weight [1, 11]: 0.37 ± 0.054
- Blood glucose at sacrifice [1, 16]: 112 ± 9.14
- Kidney Weight [1, 16]: 0.242 ± 0.027
- ug urine albumin 24 h (diabetic mice (STZ) [2]; [11]): 388.79 ± 79.78 µg
- ug urine albumin 24 h (diabetic mice (STZ) [2]; [16]): 128.54 ± 55.94 µg
- α-sma expression (western blotting, normalized to actin) [5]: have no effect
- α-sma expression (confocal microscopy) ([6]; Examples 4 and 5, FIGS. 4a and 5, high glucose 30 mM, Ramipril 10 μM, listed as ACE inhibitors): do not block; also recorded: do not reduce
- accumulation of lysine 63 ubiquitinated proteins (confocal microscopy) [7, 14]: do not reduce

Structure (SMILES): OC[C@H]1O[C@@H](c2ccc(Cl)c(Cc3ccc(O[C@H]4CCOC4)cc3)c2)[C@H](O)[C@@H](O)[C@@H]1O [SGLT2 receptor inhibitors, Empaglifozin]
- α-sma expression (confocal microscopy) [6, 13]: partially reduce
- accumulation of lysine 63 ubiquitinated proteins (confocal microscopy) [7, 15]: do not reduce
